Measurements taken from patent US6906205B2, “Spiro and dispiro 1,2,4-trioxolane antimalarials” (Medicines for Malaria Venture MMV, priority 2002, dated 2005).
Values after ≈ are worked out from the molar mass of the structure shown.

These compounds were tested on Schistosoma mansoni adult schistosomes (49-day-old) (assay: effect on adult schistosomes (49-day-old) in mice). Settings: single 400 mg/kg per os.
Format: in vivo
Protocol: Mice were infected with 100 Schistosoma mansoni cercariae […]. Each group was treated per os with OZ compounds at single doses of 200, 400, and 600 mg/kg. […] All groups were killed 4 weeks after treatment and the liver and intestine were removed and separated. The liver and intestine were compressed and alive male and female worms could be seen and counted.

SMILES	% reduction of adult worms growth at day 49 after per os application of 400 mg/kg, TWR (%)	adult worms at day 49, per os 400 mg/kg, DEAD WORM (%)
O=C([C@H]1CC[C@]2(CC1)OOC1(O2)C2CC3CC(C2)CC1C3)N1CCN(c2ccccc2)CC1 (stereo partly shown) [OZ140]	0%	3
c1ccc(C2CCC3(CC2)OOC2(O3)C3CCCC2CCC3)cc1 (stereo not shown) [OZ67]	38%	0
CC1(C)COC(c2ccc([C@H]3CC[C@]4(CC3)OOC3(O4)C4CC5CC(C4)CC3C5)cc2)=N1 (stereo partly shown) [OZ154]	58%	0
OC12CC3CC(C1)C1(OOC4(CCC5(CC4)OCCO5)O1)C(C3)C2 (stereo not shown) [OZ153]	No alive/dead worm*	–
O=[N+]([O-])c1cccc(C2(c3cccc([N+](=O)[O-])c3)OOC3(O2)C2CC4CC(C2)CC3C4)c1 (stereo not shown) [OZ105]	8%	0

These compounds were tested on P. falciparum K1 strain (Thailand resistant to chloroquine) (assay: semiautomated microdilution assay, [3H]-hypoxanthine incorporation, K1 strain). Settings: K1 strain, 72 h incubation.
Format: cell-based, Plasmodium falciparum
Procedure, shortened: (§1)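 Intraerythrocytic stages from unsynchronised stock cultures are exposed to test compounds in a semiautomated microdilution format, and fifty percent inhibitory concentrations are then fitted by logit regression.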

SMILES	IC50 (ng/ml) K1
O=C([C@H]1CC[C@]2(CC1)OOC1(O2)C2CC3CC(C2)CC1C3)N1CCN(c2ccccc2)CC1 (stereo partly shown) [OZ140]	5.9 ng/mL (≈ 0.013 µM)
c1ccc(C2CCC3(CC2)OOC2(O3)C3CCCC2CCC3)cc1 (stereo not shown) [OZ67]	>100/>100 ng/ml
CC1(C)COC(c2ccc([C@H]3CC[C@]4(CC3)OOC3(O4)C4CC5CC(C4)CC3C5)cc2)=N1 (stereo partly shown) [OZ154]	5.0 ng/mL (≈ 0.0114 µM)
OC12CC3CC(C1)C1(OOC4(CCC5(CC4)OCCO5)O1)C(C3)C2 (stereo not shown) [OZ153]	7.7 ng/mL (≈ 0.0228 µM)
O=[N+]([O-])c1cccc(C2(c3cccc([N+](=O)[O-])c3)OOC3(O2)C2CC4CC(C2)CC3C4)c1 (stereo not shown) [OZ105]	5.4 ng/mL (≈ 0.0123 µM)

What follows are compounds tested on ANKA strain of P. berghei (assay: single dose STI in vivo screen in infected mice). Settings: percent reduction in parasitemia day 3 post-infection; single 10 mg/kg po in 3% ethanol and 7% Tween 80; mice.
Set-up: species or system Plasmodium berghei
Procedure, shortened: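 Groups of 3-5 Moro SPF or NMRI mice infected with the ANKA strain of P. berghei received a single dose of trioxolane on day one post-infection. The compound was given in 3% ethanol and 7% Tween 80 or in SSV (0.5% w/v CMC, 0.5% v/v benzyl alcohol, 0.4% v/v Tween 80, 0.9% w/v sodium chloride in water). Antimalarial activity was scored as percent reduction in parasitemia on day three and as survival time versus untreated controls. Survival to day 30 counted as cure.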

SMILES	Activity (%) po
O=C([C@H]1CC[C@]2(CC1)OOC1(O2)C2CC3CC(C2)CC1C3)N1CCN(c2ccccc2)CC1 (stereo partly shown) [OZ140]	0%
c1ccc(C2CCC3(CC2)OOC2(O3)C3CCCC2CCC3)cc1 (stereo not shown) [OZ67]	0/NA/0%
O=[N+]([O-])c1cccc(C2(c3cccc([N+](=O)[O-])c3)OOC3(O2)C2CC4CC(C2)CC3C4)c1 (stereo not shown) [OZ105]	16%

Same assay, conditions: percent reduction in parasitemia day 3 post-infection; single 10 mg/kg po in 3% ethanol and 7% Tween 80; mice; 10 mg/kg

SMILES	Activity (%) po [%]
CC1(C)COC(c2ccc([C@H]3CC[C@]4(CC3)OOC3(O4)C4CC5CC(C4)CC3C5)cc2)=N1 (stereo partly shown) [OZ154]	99.74
OC12CC3CC(C1)C1(OOC4(CCC5(CC4)OCCO5)O1)C(C3)C2 (stereo not shown) [OZ153]	15

Same assay, conditions: percent reduction in parasitemia day 3 post-infection; single 10 mg/kg sc in 3% ethanol and 7% Tween 80; mice

SMILES	Activity (%) sc
O=C([C@H]1CC[C@]2(CC1)OOC1(O2)C2CC3CC(C2)CC1C3)N1CCN(c2ccccc2)CC1 (stereo partly shown) [OZ140]	60%
c1ccc(C2CCC3(CC2)OOC2(O3)C3CCCC2CCC3)cc1 (stereo not shown) [OZ67]	0/NA/0%
O=[N+]([O-])c1cccc(C2(c3cccc([N+](=O)[O-])c3)OOC3(O2)C2CC4CC(C2)CC3C4)c1 (stereo not shown) [OZ105]	28%

Same assay, conditions: percent reduction in parasitemia day 3 post-infection; single 10 mg/kg sc in 3% ethanol and 7% Tween 80; mice; 10 mg/kg

SMILES	Activity (%) sc [%]
CC1(C)COC(c2ccc([C@H]3CC[C@]4(CC3)OOC3(O4)C4CC5CC(C4)CC3C5)cc2)=N1 (stereo partly shown) [OZ154]	59
OC12CC3CC(C1)C1(OOC4(CCC5(CC4)OCCO5)O1)C(C3)C2 (stereo not shown) [OZ153]	20

Same assay, conditions: percent reduction in parasitemia day 3 post-infection; single po dose in standard suspending vehicle (SSV); mice

SMILES	Activity (%) SSVpo [%]
O=C([C@H]1CC[C@]2(CC1)OOC1(O2)C2CC3CC(C2)CC1C3)N1CCN(c2ccccc2)CC1 (stereo partly shown) [OZ140]	8
CC1(C)COC(c2ccc([C@H]3CC[C@]4(CC3)OOC3(O4)C4CC5CC(C4)CC3C5)cc2)=N1 (stereo partly shown) [OZ154]	81
OC12CC3CC(C1)C1(OOC4(CCC5(CC4)OCCO5)O1)C(C3)C2 (stereo not shown) [OZ153]	23
O=[N+]([O-])c1cccc(C2(c3cccc([N+](=O)[O-])c3)OOC3(O2)C2CC4CC(C2)CC3C4)c1 (stereo not shown) [OZ105]	0

Same assay, conditions: single 10 mg/kg po in 3% ethanol and 7% Tween 80; untreated control 5.6 ± 0.3

SMILES	Survival (days) po
O=C([C@H]1CC[C@]2(CC1)OOC1(O2)C2CC3CC(C2)CC1C3)N1CCN(c2ccccc2)CC1 (stereo partly shown) [OZ140]	6.0 days
c1ccc(C2CCC3(CC2)OOC2(O3)C3CCCC2CCC3)cc1 (stereo not shown) [OZ67]	5.0/NA/5.0 days
OC12CC3CC(C1)C1(OOC4(CCC5(CC4)OCCO5)O1)C(C3)C2 (stereo not shown) [OZ153]	6.3 days
O=[N+]([O-])c1cccc(C2(c3cccc([N+](=O)[O-])c3)OOC3(O2)C2CC4CC(C2)CC3C4)c1 (stereo not shown) [OZ105]	5.7 days

Same assay, conditions: single 10 mg/kg po in 3% ethanol and 7% Tween 80; untreated control 5.6 ± 0.3; 10 mg/kg

SMILES	Survival (days) po [days]
CC1(C)COC(c2ccc([C@H]3CC[C@]4(CC3)OOC3(O4)C4CC5CC(C4)CC3C5)cc2)=N1 (stereo partly shown) [OZ154]	14.7

Same assay, conditions: single 10 mg/kg sc in 3% ethanol and 7% Tween 80; untreated control 5.6 ± 0.3

SMILES	Survival (days) sc
O=C([C@H]1CC[C@]2(CC1)OOC1(O2)C2CC3CC(C2)CC1C3)N1CCN(c2ccccc2)CC1 (stereo partly shown) [OZ140]	7.0 days
c1ccc(C2CCC3(CC2)OOC2(O3)C3CCCC2CCC3)cc1 (stereo not shown) [OZ67]	5.0/NA/5.0 days
O=[N+]([O-])c1cccc(C2(c3cccc([N+](=O)[O-])c3)OOC3(O2)C2CC4CC(C2)CC3C4)c1 (stereo not shown) [OZ105]	6.3 days

Same assay, conditions: single 10 mg/kg sc in 3% ethanol and 7% Tween 80; untreated control 5.6 ± 0.3; 10 mg/kg

SMILES	Survival (days) sc [days]
CC1(C)COC(c2ccc([C@H]3CC[C@]4(CC3)OOC3(O4)C4CC5CC(C4)CC3C5)cc2)=N1 (stereo partly shown) [OZ154]	7.7
OC12CC3CC(C1)C1(OOC4(CCC5(CC4)OCCO5)O1)C(C3)C2 (stereo not shown) [OZ153]	6.3

Same assay, conditions: single po dose in SSV; untreated control 5.6 ± 0.3

SMILES	Survival (days) SSVpo [days]
O=C([C@H]1CC[C@]2(CC1)OOC1(O2)C2CC3CC(C2)CC1C3)N1CCN(c2ccccc2)CC1 (stereo partly shown) [OZ140]	6.3
CC1(C)COC(c2ccc([C@H]3CC[C@]4(CC3)OOC3(O4)C4CC5CC(C4)CC3C5)cc2)=N1 (stereo partly shown) [OZ154]	8.7
OC12CC3CC(C1)C1(OOC4(CCC5(CC4)OCCO5)O1)C(C3)C2 (stereo not shown) [OZ153]	7.0
O=[N+]([O-])c1cccc(C2(c3cccc([N+](=O)[O-])c3)OOC3(O2)C2CC4CC(C2)CC3C4)c1 (stereo not shown) [OZ105]	5.7

These compounds were tested on P. falciparum NF54 strain (sensitive to standard antimalarials) (assay: semiautomated microdilution assay, [3H]-hypoxanthine incorporation, NF54 strain). Settings: NF54 strain, 72 h incubation.
Format: cell-based, Plasmodium falciparum
Procedure, shortened: as §1

SMILES	IC50 (ng/ml) NF54
O=C([C@H]1CC[C@]2(CC1)OOC1(O2)C2CC3CC(C2)CC1C3)N1CCN(c2ccccc2)CC1 (stereo partly shown) [OZ140]	8.2 ng/mL (≈ 0.0181 µM)
c1ccc(C2CCC3(CC2)OOC2(O3)C3CCCC2CCC3)cc1 (stereo not shown) [OZ67]	>100/>100 ng/ml
CC1(C)COC(c2ccc([C@H]3CC[C@]4(CC3)OOC3(O4)C4CC5CC(C4)CC3C5)cc2)=N1 (stereo partly shown) [OZ154]	6.1 ng/mL (≈ 0.0139 µM)
OC12CC3CC(C1)C1(OOC4(CCC5(CC4)OCCO5)O1)C(C3)C2 (stereo not shown) [OZ153]	19 ng/mL (≈ 0.0561 µM)
